# How the values were obtained:
# Cholinesterase = Cholinesterase (Equus caballus, UniProt P81908)
# Description: Inhibition of equine serum BuChE using butyrylthiocholine iodide as substrate preincubated for 5 mins followed by substrate addition and measured after 5 mins by DTNB reagent based Ellman's method
# [1] = biological target: Sodium- and chloride-dependent GABA transporter 1 (Mus musculus) (UniProt P31648); experiment: Inhibition of NO 711 marker binding to mouse GAT1 assessed as residual activity at 100 uM by LC-ESI-MS/MS based competitive MS binding assay relative to control
# GABA transporter 4 [2] = biological target: T1, GABA transporter 4 (Mus musculus, UniProt P31650); experiment: Inhibition of mouse GAT4 transfected in HEK293 cells assessed as reduction in [3H]-GABA uptake preincubated for 25 mins followed by [3H]-GABA addition and measured after 4 mins by liquid scintillation counting analysis; type: cell-based
# T1 sequence (P31650 whole entry): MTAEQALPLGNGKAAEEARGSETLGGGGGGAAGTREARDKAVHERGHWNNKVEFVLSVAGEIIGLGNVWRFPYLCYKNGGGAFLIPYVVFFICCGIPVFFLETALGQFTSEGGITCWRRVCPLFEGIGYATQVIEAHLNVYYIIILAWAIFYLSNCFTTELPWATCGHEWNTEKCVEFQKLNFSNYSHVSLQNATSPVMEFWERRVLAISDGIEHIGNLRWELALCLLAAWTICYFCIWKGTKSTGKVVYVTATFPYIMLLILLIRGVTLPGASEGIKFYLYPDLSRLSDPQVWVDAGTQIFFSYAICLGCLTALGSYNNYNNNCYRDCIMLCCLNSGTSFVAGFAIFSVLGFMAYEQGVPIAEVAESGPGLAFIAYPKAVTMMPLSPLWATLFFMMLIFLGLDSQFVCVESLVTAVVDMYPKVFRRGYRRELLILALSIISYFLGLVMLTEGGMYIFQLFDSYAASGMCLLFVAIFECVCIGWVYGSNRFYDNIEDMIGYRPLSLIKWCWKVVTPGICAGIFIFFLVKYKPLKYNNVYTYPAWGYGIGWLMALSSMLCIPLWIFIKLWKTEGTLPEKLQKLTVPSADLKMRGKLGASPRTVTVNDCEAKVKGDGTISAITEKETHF
# Beta-secretase 1 [3] = biological target: T2, Beta-secretase 1 (Homo sapiens, UniProt P56817); details: dose 50.0 µM, time 60.0 min
# [4] = Inhibition of mouse GAT3 transfected in HEK293 cells assessed as reduction in [3H]-GABA uptake preincubated for 25 mins followed by [3H]-GABA addition and measured after 4 mins by liquid scintillation counting analysis; type: cell-based; details: HEK293
# [5] = biological target: T3, GABA transporter 2 (Mus musculus) (UniProt P31651); experiment: Inhibition of mouse GAT2 transfected in HEK293 cells assessed as reduction in [3H]-GABA uptake by measuring residual activity at 100 uM preincubated for 25 mins followed by [3H]-GABA addition and measured after 10 mins by liquid scintillation counting analysis relative to control; type: cell-based; details: time 35.0 min
# T3 sequence (whole entry): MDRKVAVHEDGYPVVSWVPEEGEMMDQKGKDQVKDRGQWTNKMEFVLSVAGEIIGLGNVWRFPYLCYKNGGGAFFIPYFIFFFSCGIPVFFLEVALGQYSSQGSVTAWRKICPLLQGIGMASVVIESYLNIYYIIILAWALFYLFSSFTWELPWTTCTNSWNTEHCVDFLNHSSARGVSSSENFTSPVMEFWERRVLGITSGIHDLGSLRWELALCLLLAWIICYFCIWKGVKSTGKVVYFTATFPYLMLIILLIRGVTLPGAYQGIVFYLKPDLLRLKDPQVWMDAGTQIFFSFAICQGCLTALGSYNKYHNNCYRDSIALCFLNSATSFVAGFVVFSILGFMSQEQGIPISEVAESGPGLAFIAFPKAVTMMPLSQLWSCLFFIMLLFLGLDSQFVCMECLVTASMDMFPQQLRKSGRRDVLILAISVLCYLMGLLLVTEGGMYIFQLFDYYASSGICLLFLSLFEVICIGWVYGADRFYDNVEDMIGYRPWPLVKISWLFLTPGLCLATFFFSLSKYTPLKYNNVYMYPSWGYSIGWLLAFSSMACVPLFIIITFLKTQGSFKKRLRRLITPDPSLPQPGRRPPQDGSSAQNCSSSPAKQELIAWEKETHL
# [6] = biological target: Sodium- and chloride-dependent GABA transporter 1 (Mus musculus) (UniProt P31648); experiment: Inhibition of mouse GAT1 transfected in HEK293 cells assessed as reduction in [3H]-GABA uptake by measuring residual activity at 100 uM preincubated for 25 mins followed by [3H]-GABA addition and measured after 4 mins by liquid scintillation counting analysis relative to control; type: cell-based; details: time 29.0 min
# [7] = biological target: Acetylcholinesterase (Electrophorus electricus) (UniProt O42275); experiment: Inhibition of electric eel AChE using acetylthiocholine iodide as substrate at 10 uM preincubated for 5 mins followed by substrate addition and measured after 5 mins by DTNB reagent based Ellman's method relative to control; details: time 10.0 min
# GABA transporter 4 [8] = biological target: T1, GABA transporter 4
# [9] = biological target: T4, Sodium- and chloride-dependent GABA transporter 1 (Mus musculus, UniProt P31648)
# GABA transporter 2 [10] = biological target: T5, GABA transporter 2 (Mus musculus, UniProt P31651)
# T5 sequence (P31651 whole entry): T3 sequence (whole entry)
# [11] = biological target: Cholinesterase (Equus caballus) (UniProt P81908); experiment: Inhibition of equine serum BuChE using butyrylthiocholine iodide as substrate at 10 uM preincubated for 5 mins followed by substrate addition and measured after 5 mins by DTNB reagent based Ellman's method relative to control; details: time 10.0 min
# [12] = biological target: T6, GABA transporter 4 (Mus musculus) (UniProt P31650); experiment: Inhibition of mouse GAT4 transfected in HEK293 cells assessed as reduction in [3H]-GABA uptake by measuring residual activity at 100 uM preincubated for 25 mins followed by [3H]-GABA addition and measured after 4 mins by liquid scintillation counting analysis relative to control; type: cell-based; details: time 29.0 min
# T6 sequence (whole entry): T1 sequence (P31650 whole entry)
# GABA transporter 2 [13] = biological target: T5, GABA transporter 2; experiment: Inhibition of mouse GAT2 transfected in HEK293 cells assessed as reduction in [3H]-GABA uptake preincubated for 25 mins followed by [3H]-GABA addition and measured after 10 mins by liquid scintillation counting analysis; type: cell-based
# [14] = biological target: T4, Sodium- and chloride-dependent GABA transporter 1; experiment: Inhibition of NO 711 marker binding to mouse GAT1 by LC-ESI-MS/MS based competitive MS binding assay
# [15] = biological target: T4, Sodium- and chloride-dependent GABA transporter 1; experiment: Inhibition of mouse GAT1 transfected in HEK293 cells assessed as reduction in [3H]-GABA uptake preincubated for 25 mins followed by [3H]-GABA addition and measured after 4 mins by liquid scintillation counting analysis; type: cell-based
# [16] = biological target: Amyloid-beta precursor protein (Homo sapiens) (UniProt P05067); experiment: Inhibition of amyloid beta40 (unknown origin) aggregation at 10 uM measured every 5 mins by ThT fluorescence based assay relative to control
# [17] = biological target: Amyloid-beta precursor protein (Homo sapiens) (UniProt P05067); experiment: Inhibition of amyloid beta42 (unknown origin) aggregation expressed in Escherichia coli BL21 (DE3) at 10 uM measured every 5 mins by ThT fluorescence based assay relative to control
# Beta-secretase 1 [18] = biological target: T2, Beta-secretase 1
# Acetylcholinesterase (Electrophorus electricus), sequence (O42275 24-633 limits assumed): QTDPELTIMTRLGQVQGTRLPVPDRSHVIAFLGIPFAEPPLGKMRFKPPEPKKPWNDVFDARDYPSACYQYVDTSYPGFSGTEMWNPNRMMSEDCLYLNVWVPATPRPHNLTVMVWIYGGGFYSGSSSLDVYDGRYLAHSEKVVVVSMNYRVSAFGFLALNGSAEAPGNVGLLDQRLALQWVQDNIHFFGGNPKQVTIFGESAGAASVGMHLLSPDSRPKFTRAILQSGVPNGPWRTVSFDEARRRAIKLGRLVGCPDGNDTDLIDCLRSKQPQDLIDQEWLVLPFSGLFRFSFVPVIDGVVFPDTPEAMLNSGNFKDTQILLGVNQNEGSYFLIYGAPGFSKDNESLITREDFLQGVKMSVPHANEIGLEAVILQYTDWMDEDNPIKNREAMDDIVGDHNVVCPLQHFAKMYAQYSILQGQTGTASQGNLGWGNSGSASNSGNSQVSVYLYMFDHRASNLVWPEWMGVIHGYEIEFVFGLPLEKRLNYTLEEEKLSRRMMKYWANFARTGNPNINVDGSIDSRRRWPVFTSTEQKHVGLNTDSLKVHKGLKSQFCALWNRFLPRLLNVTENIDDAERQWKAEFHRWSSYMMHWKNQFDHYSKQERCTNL
# T2 sequence (P56817 whole entry): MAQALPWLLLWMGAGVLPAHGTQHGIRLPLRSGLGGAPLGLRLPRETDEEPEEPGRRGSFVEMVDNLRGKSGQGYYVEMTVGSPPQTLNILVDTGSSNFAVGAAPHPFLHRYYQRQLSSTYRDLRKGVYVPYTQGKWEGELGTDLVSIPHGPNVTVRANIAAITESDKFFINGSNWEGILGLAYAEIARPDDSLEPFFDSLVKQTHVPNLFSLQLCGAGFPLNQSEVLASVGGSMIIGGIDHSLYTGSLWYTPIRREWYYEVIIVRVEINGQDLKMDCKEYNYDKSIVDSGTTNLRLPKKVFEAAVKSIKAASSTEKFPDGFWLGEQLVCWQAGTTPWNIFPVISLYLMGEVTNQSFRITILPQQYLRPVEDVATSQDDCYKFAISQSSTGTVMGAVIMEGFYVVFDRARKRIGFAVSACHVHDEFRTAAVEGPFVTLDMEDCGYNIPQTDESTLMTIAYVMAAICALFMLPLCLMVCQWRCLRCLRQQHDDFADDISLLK
# Amyloid-beta precursor protein (Homo sapiens), sequence (P05067 whole entry): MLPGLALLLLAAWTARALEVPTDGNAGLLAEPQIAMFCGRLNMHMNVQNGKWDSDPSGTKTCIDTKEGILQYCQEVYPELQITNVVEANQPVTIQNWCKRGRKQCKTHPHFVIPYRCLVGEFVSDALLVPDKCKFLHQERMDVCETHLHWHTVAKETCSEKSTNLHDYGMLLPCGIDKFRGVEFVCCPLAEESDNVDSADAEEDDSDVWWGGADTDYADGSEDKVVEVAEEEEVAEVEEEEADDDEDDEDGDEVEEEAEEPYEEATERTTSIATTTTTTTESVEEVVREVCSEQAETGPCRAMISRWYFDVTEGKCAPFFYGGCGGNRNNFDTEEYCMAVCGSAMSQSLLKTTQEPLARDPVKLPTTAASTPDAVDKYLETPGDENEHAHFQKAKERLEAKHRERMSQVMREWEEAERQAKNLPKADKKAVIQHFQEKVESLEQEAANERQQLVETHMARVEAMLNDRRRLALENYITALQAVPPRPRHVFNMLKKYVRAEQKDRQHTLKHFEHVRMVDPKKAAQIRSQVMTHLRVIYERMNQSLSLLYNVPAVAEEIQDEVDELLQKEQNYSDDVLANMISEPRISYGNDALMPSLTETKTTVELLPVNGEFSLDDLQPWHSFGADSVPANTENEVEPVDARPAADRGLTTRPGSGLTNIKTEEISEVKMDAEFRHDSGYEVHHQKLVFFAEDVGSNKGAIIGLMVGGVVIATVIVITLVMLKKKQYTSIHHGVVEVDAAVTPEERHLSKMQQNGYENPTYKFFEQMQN
# Cholinesterase, sequence (P81908 whole entry): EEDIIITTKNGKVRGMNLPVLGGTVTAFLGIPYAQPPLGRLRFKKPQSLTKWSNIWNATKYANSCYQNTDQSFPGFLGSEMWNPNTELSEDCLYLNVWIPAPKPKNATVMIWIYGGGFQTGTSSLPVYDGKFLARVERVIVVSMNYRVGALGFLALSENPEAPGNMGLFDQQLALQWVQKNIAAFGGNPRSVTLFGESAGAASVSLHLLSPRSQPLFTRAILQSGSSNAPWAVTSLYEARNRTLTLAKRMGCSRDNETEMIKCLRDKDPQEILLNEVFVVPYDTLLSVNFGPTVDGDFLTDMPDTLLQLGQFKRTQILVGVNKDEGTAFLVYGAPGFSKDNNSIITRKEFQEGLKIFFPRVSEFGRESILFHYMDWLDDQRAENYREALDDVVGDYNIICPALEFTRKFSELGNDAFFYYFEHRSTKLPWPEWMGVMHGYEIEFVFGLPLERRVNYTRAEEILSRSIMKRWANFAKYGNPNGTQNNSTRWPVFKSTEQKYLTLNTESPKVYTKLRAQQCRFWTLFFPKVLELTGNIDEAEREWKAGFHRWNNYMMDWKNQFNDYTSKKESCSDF
# Cholinesterase (Equus caballus), sequence (P81908 whole entry): as above
SMILES,IC50 (Cholinesterase),IC50 (GABA transporter 4 [2]; read-out: pIC50 (converted)),IC50 ([4]; read-out: pIC50 (converted)),Activity [5],inhibition [7],Ki [14],IC50 ([15]; read-out: pIC50 (converted)),other results
CN(CCOCCN1c2ccccc2Sc2ccccc21)C(CCO)C(=O)NCc1ccc(Cl)cc1 (stereo not given),4.27 µM,20.9 µM,7.94 µM,55%,< 10%,,,Activity [1]: 96%; inhibition (Beta-secretase 1 [3]): 44%; Activity [6]: 57%
CN(CCC=C(c1ccccc1)c1ccccc1)C(CN)C(=O)NCc1ccccc1Cl (stereo not given),,,,,,,,IC50 (GABA transporter 4 [8]): 9 µM; IC50 [9]: 13 µM; IC50 (GABA transporter 2 [10]): 6 µM
CN(CCC=C(c1ccccc1)c1ccccc1)C(CO)C(=O)NCc1ccccc1Cl (stereo not given),,,,,,,,IC50 (GABA transporter 4 [8]): 10 µM; IC50 [9]: 19 µM; IC50 (GABA transporter 2 [10]): 13 µM
O=C(NC1CCN(C(c2ccccc2)c2ccccc2)CC1)C1CC2c3ccccc3NC2CN1 (stereo not given),,,,57%,< 10%,,,Activity [1]: 73%; inhibition [11]: < 10%; Activity [6]: 87%; Activity [12]: 89%
CN(CCOCCn1c2ccccc2c2ccccc21)C(CCN)C(=O)NCc1ccccc1Cl (stereo not given),0.204 µM,9.33 µM,12.9 µM,,< 10%,93.3 µM,19.5 µM,IC50 (GABA transporter 2 [13]; read-out: pIC50 (converted)): 8.32 µM; inhibition (Beta-secretase 1 [3]): 79%; inhibition [16]: 92.4%; inhibition [17]: 30.2%
CN(CCOCCN1c2ccccc2Sc2ccccc21)C(CCN)C(=O)NCc1ccccc1 (stereo not given),0.35 µM,15.1 µM,10 µM,,< 10%,67.6 µM,15.8 µM,IC50 (GABA transporter 2 [13]; read-out: IC50): 3 µM; IC50 (Beta-secretase 1 [18]): 22.9 µM; inhibition [16]: 96.7%; inhibition [17]: 34.9%
CN(CCC=C(c1ccccc1)c1ccccc1)C(=O)C1Cc2c([nH]c3ccccc23)CN1 (stereo not given),3.13 µM,,4.07 µM,55%,38%,79.4 µM,12 µM,IC50 (GABA transporter 4 [2]; read-out: IC50): 6.3 µM; IC50 ([4]; read-out: IC50): 4.1 µM
CN(CCOCCN1c2ccccc2Sc2ccccc21)C(CCN)C(=O)NCc1ccc(F)cc1 (stereo not given),1.02 µM,14.1 µM,8.32 µM,,< 10%,77.6 µM,14.8 µM,IC50 (GABA transporter 2 [13]; read-out: pIC50 (converted)): 10.2 µM; IC50 (Beta-secretase 1 [18]): 5.35 µM; inhibition [16]: 74.7%; inhibition [17]: 23.9%
CC(CC(=O)O)NCCOCCN1c2ccccc2Sc2ccccc21 (stereo not given),,,,,,,,IC50 [9]: 9 µM
CN(CC/C=C/c1ccccc1-c1ccc(Cl)cc1Cl)C(CCO)C(=O)NCc1ccccc1 (stereo not given),,7.41 µM,7.76 µM,13%,,,,Activity [1]: 49%; inhibition (Beta-secretase 1 [3]): 52%; inhibition [11]: 47%; Activity [6]: 45%
CN(CC/C=C/c1ccccc1-c1ccc(Cl)cc1Cl)C(CCN)C(=O)NCc1ccccc1 (stereo not given),1.43 µM,7.41 µM,6.61 µM,18%,,28.2 µM,,IC50 (Beta-secretase 1 [18]): 5.41 µM; IC50 ([15]; read-out: IC50): 5.5 µM
O=C(O)[C@@H]1CCCN(CCOCCN2c3ccccc3Sc3ccccc32)C1,,,,,,,,IC50 [9]: 0.3 µM
Cc1ccsc1C(=CCCN(C)[C@H]1CCCC[C@H]1C(=O)O)c1sccc1C,,,,,,,,IC50 (GABA transporter 2 [10]): 21 µM
CN(CCOCCN1c2ccccc2Sc2ccccc21)C(CCN)C(=O)NCc1ccccc1Cl (stereo not given),0.411 µM,8.71 µM,6.17 µM,,14%,57.5 µM,12.6 µM,IC50 (GABA transporter 2 [13]; read-out: pIC50 (converted)): 6.61 µM; IC50 (Beta-secretase 1 [18]): 5.17 µM; inhibition [16]: 74%; inhibition [17]: 27.1%

# From ChEMBL document CHEMBL5335794, “Discovery of novel multifunctional ligands targeting GABA transporters, butyrylcholinesterase, β-secretase, and amyloid β aggregation as potential treatment of Alzheimer's disease” (Eur J Med Chem, 2023)
